From ChEMBL document CHEMBL1152881, “A heterocyclic molecule with significant activity against dengue virus” (Bioorg Med Chem Lett, 2009)
In brackets after ≈: the same amount, converted by molar mass. Activity calls are given as the source filed them. The calls are words filed in the database; no cut-off is given here.

How the values were obtained:
[1] = tested on: dengue virus type 2; experiment: Antiviral activity against Dengue virus type 2 New Guinea C infected in african green monkey Vero cells assessed as inhibition of virus-induced cytopathic effect; assay type: functional, organism-based
[2] = Cytotoxicity against african green monkey Vero cells; assay type: cell-based; conditions: chlorocebus sabaeus
[3] = (§1) Therapeutic index, ratio of CC50 for african green monkey Vero cells to EC50 for Dengue virus type 2; assay type: cell-based; conditions: read-out: TI
[4] = tested on: dengue virus type 2; experiment: Antiviral activity against Dengue virus type 2 New Guinea C infected in african green monkey Vero cells assessed as inhibition of virus-induced cytopathic effect by viral yield reduction assay; assay type: functional
[5] = as §1; assay type: cell-based; conditions: read-out: TI; remark: listed apart in the source
[6] = tested on: Yellow fever virus; experiment: Antiviral activity against Yellow fever virus 17D by viral yield reduction assay; assay type: functional, organism-based
[7] = tested on: dengue virus type 2; experiment: Antiviral activity against Dengue virus type 2 New Guinea C infected in african green monkey Vero cells by neutral red uptake assay; assay type: functional, organism-based
[8] = as §1; assay type: cell-based; conditions: read-out: TI; remark: listed apart in the source

**Q.** With `O=C(O)c1cnc2c(c1O)c(=O)n(Cc1ccccc1)c(=O)n2Cc1ccccc1` as the compound, how does the EC50 [1] read?
**A.** 5.7 µg/mL (≈ 14.1 µM)

**Q.** What about the CC50 [2] of the same compound?
**A.** > 100 µg/mL

**Q.** And the selectivity ratio [3]?
**A.** > 16

**Q.** What about the CC50 [4] of the same compound?
**A.** > 100 µg/mL

**Q.** And the EC90 [4]?
**A.** 3.8 µg/mL (≈ 9.42 µM)

**Q.** What about the selectivity ratio [5] of the same compound?
**A.** > 26

**Q.** And the Activity [6]?
**A.** Active

**Q.** And the EC50 [7]?
**A.** 6.3 µg/mL (≈ 15.6 µM)

**Q.** What about the selectivity ratio [8] of the same compound?
**A.** > 18
